Entries after “also recorded” stand apart in the source; their conditions may differ.
Tests used:
[1] = test system: [PSI+] prion (prion form of the protein Sup35p), STRg6 strain; assay type: cell-based, Saccharomyces cerevisiae; conditions: for relative anti-prion activity on a dish (FIG. 4): 10 μl of a 10 mM solution applied; for activity against the [PSI+] prion (FIG. 7, validation of the screen) / activity compared with another compound in the screen: medium contains 200 μM of guanidium chloride; for synergy of action with guanidium chloride: sub-effective guanidium chloride in medium (200 μM, 500 μM)
[2] = test system: [PSI+] prion, "strong" strain 74-D694; assay type: cell-based, Saccharomyces cerevisiae
[3] = test system: [URE3] prion (Ure2p), NT34 strain; assay type: cell-based, Saccharomyces cerevisiae; conditions: for red halo on NT34 lawn ([URE3] secondary screen): FIG. 6
[4] = test system: [URE3] prion, NT34 and CC34 strains; assay type: cell-based, Saccharomyces cerevisiae
[5] = target: PrP^sc in ScN2a-22L cells (Mus musculus, UniProt P04925); assay type: cell-based
PrP^sc in ScN2a-22L cells, sequence (P04925 23-230 limits assumed): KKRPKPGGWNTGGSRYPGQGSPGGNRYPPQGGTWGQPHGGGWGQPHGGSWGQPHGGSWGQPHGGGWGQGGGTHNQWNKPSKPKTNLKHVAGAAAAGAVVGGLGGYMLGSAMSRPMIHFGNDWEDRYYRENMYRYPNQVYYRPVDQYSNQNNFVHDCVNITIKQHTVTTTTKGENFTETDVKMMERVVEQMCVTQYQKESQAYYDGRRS

mammal prion PrP = mammal prion PrP (Mus musculus, UniProt P04925); conditions: cited from earlier work
mammal prion PrP, sequence (P04925 23-230 limits assumed): as above

**Q.** For `Nc1nc2ccccc2c2ccccc12` [6-aminophenanthridine], which “general statement of anti-prion activity in the screen” value [1] is on record?
**A.** particularly active

**Q.** And the “relative anti-prion activity on a dish (FIG. 4)” value (from here on “relative anti-prion activity”) [1]?
**A.** still more active than the Kastellpaolitines and phenanthridine

**Q.** What about the “curing of the [PSI+] prion in liquid medium” value ([2]; 5 days liquid culture, compound alone, FIG. 5) of the same molecule?
**A.** capable of partially curing the [PSI+] prion from a significant number of cells

**Q.** What about the “curing effectiveness with added guanidium chloride in liquid medium” value ([2]; plus sub-effective dose (100 μM) of guanidium chloride) of the same molecule?
**A.** increased

**Q.** What about the “red halo on NT34 lawn ([URE3] secondary screen)” value [3] of the same molecule?
**A.** cause the appearance of a red halo

**Q.** What about the “colony colour of NT34 cells recovered around the filter, on fresh medium free of molecules” value [4] of the same molecule?
**A.** red colonies

**Q.** What about the “curing of the [URE3] prion (ability to grow on USA medium)” value ([4]; CC34 strain, different doses, alone) of the same molecule?
**A.** capable of curing the [URE3] prion in a significant manner

**Q.** What about the “curing of the [URE3] prion in combination with guanidium chloride” value ([4]; CC34 strain, with 200 μM of guanidium chloride) of the same molecule?
**A.** accentuated

**Q.** And the “elimination of the mammal prion in vitro (summary)” value [5]?
**A.** effective

**Q.** What about the “effect on the elimination of PrPsc” value ([5]; at 2 and 4 μM) of the same molecule?
**A.** same effect

**Q.** Which “relative anti-prion activity” value [1] does the source give for `Nc1nc2ccccc2c2ccc(Cl)cc12` [6A-8CP, 6-amino-8-chlorophenanthridine] here?
**A.** again increased the activity

**Q.** Which “relative anti-prion activity” value [1] does the source give for `Nc1nc2ccccc2c2ccc(C(F)(F)F)cc12` [6A-8tFP, 6-amino-8-trifluoromethylphenanthridine] here?
**A.** one of the most active compounds

**Q.** Which “activity against the [PSI+] prion (FIG. 7, validation of the screen)” value (shortened to “activity against the [PSI+] prion”) [1] does the source give for `CC(=O)c1ccc2c(c1)N(CCCN(C)C)c1ccccc1S2` [acepromazine] here?
**A.** weak activity

**Q.** What about the “activity in the mammal system (Prof. Prusiner's test)” value (“activity in the mammal system” for short) (mammal prion PrP) of the same molecule?
**A.** slightly active

**Q.** With `NC(=O)N1c2ccccc2C=Cc2ccccc21` [carbamazepine] as the molecule, how does the “activity against the [PSI+] prion” value [1] read?
**A.** inactive

**Q.** What about the “activity in the mammal system” value (mammal prion PrP) of the same molecule?
**A.** inactive

**Q.** With `CN(C)CC/C=C1/c2ccccc2Sc2ccc(Cl)cc21` [chloroprothixene] as the molecule, how does the “activity against the [PSI+] prion” value [1] read?
**A.** inactive

**Q.** What about the “activity in the mammal system” value (mammal prion PrP) of the same molecule?
**A.** inactive

**Q.** For `CN(C)CCCN1c2ccccc2Sc2ccc(Cl)cc21` [chlorpromazine], which “activity against the [PSI+] prion” value [1] is on record?
**A.** a certain activity

**Q.** What about the “activity compared with another compound in the screen” value [1] of the same molecule?
**A.** clearly weaker than that of 6-aminophenanthridine

**Q.** And the “synergy of action with guanidium chloride” value [1]?
**A.** strong synergy of action

**Q.** What does the source list for `Cl.N=C(N)N` [guanidium chloride]?
**A.** curing of [PSI+] cells (red staining of the drop of cells) ([2]; 5 mM guanidium chloride, 0.2% DMSO, after 48 hours (approximately 12 generations)): complete curing; colony colour of NT34 strain after treatment ([3]; 5 mM of guanidium chloride for approximately ten generations): red colonies; colony colour of NT34 cells recovered around the filter, on fresh medium free of molecules [4]: red colonies

**Q.** For `O=C(CCCN1CCC(O)(c2ccc(Cl)cc2)CC1)c1ccc(F)cc1` [haloperidol], which “activity against the [PSI+] prion” value [1] is on record?
**A.** inactive

**Q.** And the “activity in the mammal system” value (mammal prion PrP)?
**A.** inactive

**Q.** What does the source list for `CN(C)CCCN1c2ccccc2CCc2ccccc21` [imipramine]?
**A.** activity against the [PSI+] prion (FIG. 7, validation of the screen) [1]: inactive; activity in the mammal system (Prof. Prusiner's test) (mammal prion PrP): inactive

**Q.** What does the source list for `CN(C)c1ccc2nc3ccc(=[N+](C)C)cc-3sc2c1` [methylene blue]?
**A.** activity against the [PSI+] prion (FIG. 7, validation of the screen) [1]: inactive; activity in the mammal system (Prof. Prusiner's test) (mammal prion PrP): inactive

**Q.** For `c1ccc2c(c1)cnc1ccccc12` [phenanthridine], which “general statement of anti-prion activity in the screen” value [1] is on record?
**A.** particularly active

**Q.** And the “anti-prion activity: red halo around the filter disc (size of the halo)” value ([1]; 15 μl of a 10 mM solution in DMSO, medium with 0.2 mM guanidium chloride, FIG. 3)?
**A.** positive signal

**Q.** What about the “activity on a medium without guanidium chloride” value ([1]; medium without guanidium chloride) of the same molecule?
**A.** always active

**Q.** And the “synergy of action with guanidium chloride” value [1]?
**A.** activity increases significantly as a function of the quantity of guanidium chloride

**Q.** And the “red halo on NT34 lawn ([URE3] secondary screen)” value [3]?
**A.** cause the appearance of a red halo

**Q.** What about the “colony colour of NT34 cells recovered around the filter, on fresh medium free of molecules” value [4] of the same molecule?
**A.** red colonies

**Q.** For `CCN(CC)CCCC(C)Nc1c2ccc(Cl)cc2nc2ccc(OC)cc12` (stereo not drawn) [quinacrine], which “activity against the [PSI+] prion” value [1] is on record?
**A.** a certain activity

**Q.** And the “activity compared with another compound in the screen” value [1]?
**A.** clearly weaker than that of 6-aminophenanthridine; also recorded: activity greater than the latter

**Q.** Which “activity against the [PSI+] prion” value [1] does the source give for `COc1ccc(CCN(C)CCCC(C#N)(c2ccc(OC)c(OC)c2)C(C)C)cc1OC` (stereo not drawn) [verapamil] here?
**A.** no curative effect could be detected
